Data taken from patent US20260097047A1, “Small molecule inhibitors of the ribosome biogenesis factor NVL2” (Board of Regents, The University of Texas System, priority 2023, published 2026).
pIC50: −log10 of the molar value. Where “and” joins values, the source holds several entries; their conditions need not be identical. Equal values may be shown once.

Columns and labels:
[1] = tested on: p53 KO and p21 KO HCT116 cells; experiment: Growth competition of p53 or p21 knockout versus control HCT116 cells; format: cell-based, human
Excerpt: To better understand how inhibition of NVL by MM017 leads to cell death, we performed a genome wide pooled CRISPR/Cas9 knockout screen in HCT116 cells using a library of guide RNAs targeting 19,114 genes. Cells were pulsed intermittently with vehicle or MM017 over 21 days, at which point MM017 treated cells had undergone 9.79 fewer population doublings. Massively parallel sequencing of PCR products amplified from genomic DNA was used to determine relative levels of sgRNA sequences to infer the relative impact of each gene on compound sensitivity. […] To confirm whether p53 and p21 are required for the anti-proliferative activity of MM017, we performed a growth competition experiment between cells expressing ZsGreen with either p53 or p21 knockout (KO) and control cells expressing mCherry. Without treatment, the ratio between green and red cells was unchanged over time.

[2] = Pharmacokinetic studies in CD-1 female mice, intraperitoneal; format: in vivo, mouse
Procedure: Plasma exposure was dose-dependent up to 35 mg/kg (IP injection) reaching a maximum concentration at 17.86 μM. These levels exceed the anti-proliferative IC99 of MM927 in cells expressing either human or mouse NVL. In a subsequent pharmacodynamic (PD) study, we asked if we could assess on-target NVL inhibition via a subsequent p53 and/or p21 induction in tumor xenografts in mice treated with MM927. We implanted HCT116 NVL^WT and NVL^R403W cells subcutaneously on either flank of the mice and evaluated the levels of p53 and p21 in either tumor at various time points after IP administration of 35 mg/kg of MM927.
(§1) Pharmacokinetic studies were performed by dosing 6-7 week old CD-1 female mice with analog MM927 formulated as 10% DMSO/10% Kolliphor EL/10% Solutal/70% D5W via the intraperitoneal route. Animals were euthanized in groups of three, blood was obtained by cheek bleeds at each time point (0, 10, 30, 90, 180, 360, 960 and 1440 minutes post dose) using the anticoagulant ACD (acidified citrate dextrose) and plasma isolated by centrifugation. For the dose escalation study, mice were dosed with 20 mg/kg, 35 mg/kg, or 60 mg/kg and blood was collected at 10, 180, and 720 minutes post dose. […] The resulting supernatants were evaluated by LC-MS/MS using a Sciex (Framingham, MA) 4500 Triple Quad coupled to a Shimadzu (Columbia, MD) Prominence LC. Briefly, MM927 was detected in multiple reaction monitoring mode (MRM) using the (m+1) transition 488.059/176.1. […] The concentrations of drug in each time-point sample were quantified using Analyst software (Sciex). […] The limit of quantitation (LOQ) was defined as the lowest concentration at which back calculation yielded a concentration within 20% of theoretical and which was above the LOD. Cmax and AUC values were calculated using the noncompartmental analysis tool of Phoenix WinNonLin (Certara/Pharsight, Sunnyvale, CA).

[3] = target: T1, mouse NVL (Mus musculus, UniProt Q9DBY8); experiment: Viability of NVL^AID/AID cells relying on ectopic mouse NVL (Ph-IAA); format: cell-based; details: endogenous NVL degraded with Ph-IAA
T1 construct: expressed in transfected cells; host or cells: HCT116 NVL^AID/AID cells (human cells, viral infection)
Excerpt: Next, we investigated whether inhibitors of NVL could inhibit the growth of cell line derived xenografts tumors in mice, and whether systemic inhibition of NVL leads to specific toxicities. […] To test the potency of MM927 against mouse NVL within the same cell type, we ectopically expressed either human or mouse NVL in NVL^AID/AID cells. Treatment with Ph-IAA degrades the endogenous protein so that the cells must rely solely on ectopically expressed NVL. In the mock infected cells, degrading NVL^AID/AID by the addition of Ph-IAA reduced cell viability as expected, and the viability was completely rescued by expression of either ectopic mouse or human NVL.

[4] = Drug levels in plasma and tumor at end of efficacy study (NSG mice); format: in vivo, mouse; details: 3 hours after the last treatment dose, 35 mg/kg IP twice a day for 21 days
Procedure: Having established the kinetics of MM927 mediated NVL inhibition in xenograft tumors, we administered 35 mg/kg MM927 IP twice a day for 21 days to mice harboring tumors derived from either HCT116 NVL wild type or NVL^R403W cells. […] Taken together, we concluded that the potent, and bioavailable analog MM927 reduces tumor growth in mouse xenografts by inhibiting NVL without toxicity.
as §1, with “route.” for “route. Animals were euthanized in groups of three, blood was obtained by cheek bleeds at each time point (0, 10, 30, 90, 180, 360, 960 and 1440 minutes post dose) using the anticoagulant ACD (acidified citrate dextrose) and plasma isolated by centrifugation. For the dose escalation study, mice were dosed with 20 mg/kg, 35 mg/kg, or 60 mg/kg and blood was collected at 10, 180, and 720 minutes post dose.”, “CA). […]” for “CA).”

T1 sequence (Q9DBY8 whole entry): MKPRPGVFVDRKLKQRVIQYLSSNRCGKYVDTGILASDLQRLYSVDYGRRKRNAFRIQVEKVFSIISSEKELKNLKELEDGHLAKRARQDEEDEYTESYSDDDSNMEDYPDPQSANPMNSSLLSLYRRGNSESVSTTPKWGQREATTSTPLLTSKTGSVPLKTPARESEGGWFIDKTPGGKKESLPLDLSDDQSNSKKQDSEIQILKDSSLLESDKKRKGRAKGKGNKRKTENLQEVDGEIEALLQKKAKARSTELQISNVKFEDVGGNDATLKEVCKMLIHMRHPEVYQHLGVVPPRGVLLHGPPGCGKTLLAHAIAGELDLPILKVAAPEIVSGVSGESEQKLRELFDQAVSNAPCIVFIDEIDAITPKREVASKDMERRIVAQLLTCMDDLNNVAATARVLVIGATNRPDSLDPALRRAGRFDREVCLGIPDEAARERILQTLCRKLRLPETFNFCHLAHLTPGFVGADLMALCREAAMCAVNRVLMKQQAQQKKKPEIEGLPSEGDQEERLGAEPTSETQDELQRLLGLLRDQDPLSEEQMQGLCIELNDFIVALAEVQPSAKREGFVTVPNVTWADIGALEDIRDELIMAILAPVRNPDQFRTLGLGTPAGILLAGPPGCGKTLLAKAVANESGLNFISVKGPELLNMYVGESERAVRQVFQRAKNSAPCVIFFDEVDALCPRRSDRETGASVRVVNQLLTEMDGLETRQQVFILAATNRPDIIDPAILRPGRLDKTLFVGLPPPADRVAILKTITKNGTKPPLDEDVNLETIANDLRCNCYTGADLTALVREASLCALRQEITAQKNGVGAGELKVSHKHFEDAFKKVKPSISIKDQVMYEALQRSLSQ

Structure (SMILES) | enrichment of p53 or p21 KO cells in growth competition [1] | maximum plasma concentration ([2]; 35 mg/kg IP injection, dose escalation) [µM] | half-life ([2]; female, CD-1, mouse, plasma, 10 mg/kg intraperitoneal (IP) injection, read-out: elimination half-life) [h] | Cmax ([2]; female, CD-1, mouse, plasma, 10 mg/kg intraperitoneal (IP) injection, read-out: peak plasma levels (Cmax)) | pIC50 [3] | level in plasma and tumor [4]
COCCN1C(=O)c2ccccc2Sc2cc(NC(=O)c3ccoc3)ccc21 [MM017] | dose-dependent enrichment of either p53 or p21 KO cells | – | – | – | – | –
CC#CCN1C(=O)c2ccc(F)cc2Sc2cc(NC(=O)c3ccc4oc(=O)n(C)c4c3)ccc21 [MM927, N-(10-(But-2-yn-1-yl)-3-fluoro-11-oxo-10,11-dihydrodibenzo[b,f][1,4]thiazepin-7-yl)-3-methyl-2-oxo-2,3-dihydrobenzo[d]oxazole-5-carboxamide] | – | 17.86 | 1.69 | 2510 ng/mL and 5.15 µM | 6.68 | micromolar levels
